Key:
[1] = test system: RKO colon carcinoma cells; assay: DNA content of treated RKO cells by flow cytometry (cell cycle distribution); type: cell-based, human; details: 10 μg/ml; for cell cycle distribution (DNA content), early time points: 5 and 8 h
Method: Cells were cultured in DMEM with 10% fetal bovine serum (Hyclone). Cells were screened periodically for mycoplasma contamination (Gen-probe). Cerulenin (Sigma) C-75 and TOFA, dissolved in DMSO, were added from 5 mg/ml stock solutions; the final concentration of DMSO in cultures was at or below 0.2%. Cells were exposed to cerulenin or C-75 for the indicated doses and time intervals, then detached from plastic with trypsin for flow cytometry analysis. DNA content was measured by multiparameter flow cytometry using a FACStar^Plus flow cytometer equipped with argon and krypton lasers (Becton Dickinson).

[2] = test system: RKO cells; assay: BrdU pulse/chase cell cycle progression by laser scanning cytometry; type: cell-based, human; details: 10 μg/ml, chase 4-24 h
Method: A similar experiment measured cell cycle progression by pulse/chase labeling with bromodeoxyuridine (BrdU, FIG. 2). The BrdU-positive S-phase fraction at time zero progresses through the cell cycle at later time points. B. The progress of BrdU pulse-labeled RKO cells through the cell cycle was monitored over 24 h without inhibition of FAS, or during exposure to cerulenin (10 μg/ml) or C-75 (10 μg/ml).
Dual-parameter detection of Bromodeoxyuridine (BrdU) labeling and DNA content was performed using a laser scanning cytometer (Compucyte Corp.). Cell cultures were pulse-labeled for 20 min with 10 μM BrdU, and chased for the indicated times in the absence or presence of drug, then detached from plastic with trypsin, ethanol-fixed and applied to glass slides. Cells were subjected to standard heat-induced epitope retrieval (DAKO) before staining with anti-BrdU antibody (DAKO) and FITC-conjugated goat anti-mouse antibody (CALTAG, DAKO Autostainer™). DNA content was assessed after staining with 0.5% propidium iodide. Data were collected and analyzed using WinCyte software (Compucyte Corp.).
A 20-min exposure of proliferating cells to BrdU labeled the S-phase population at time zero. Chase samples were collected at 4, 8, 16 and 24 h. In control cultures (FIG. 2A), the BrdU-labeled population progressed through G2/M, first reappearing in the G1 population in the 8 h chase sample. […]

[3] = test system: cyclin A-associated kinase activity; assay: Immunocomplex-kinase assay after drug exposure of RKO cells, cyclin A; type: cell-based, human; details: 10 μg/ml, later time points (16 and 24 h)
Method: The effect of FAS inhibitors on the activity of cyclin/cdk complexes in RKO cells was determined in a time course analysis. After RKO cells were exposed to FAS inhibitors for the indicated time periods, cyclin A- and cyclin B 1-associated kinase activities were determined by an immunocomplex-kinase assay.
Five×10^6 RKO cells per 100-mm plate were treated with 10 μg/ml cerulenin or C-75 for the indicated time intervals. The control cells received equivalent amounts of DMSO. After drug treatment, the plates were washed once and lysed with immunoprecipitation (IP) buffer (150 mM Tris, pH 7.4, 150 mM NaCl, 1% Triton X-100, 0.5% NP-40, 1 mM ethyleneglyco-bis-tetraacetic acid, 0.2 mM sodium vanadate, and 0.2 mM phenylmethylsulfonyl fluoride). Protein concentration was measured using the BCA Protein Assay Kit (Pierce). One hundred μg of protein from each sample was incubated at 4° C. for 1 h with 1 μg of primary antibody (anti-human cyclin A rabbit polyclonal antibody or anti-human cyclin B 1 monoclonal antibody, Santa Cruz) and then overnight after addition of Protein A or protein G-Sepharose (Santa Cruz). […] Samples were resolved by electrophoresis through 12% SDS-polyacrylamide gels and quantitated on a Storm 820 system (Molecular Dynamics). […]

[4] = test system: p53; assay: Immunoblot of p53 protein in RKO cells; type: cell-based, human; details: 10 μg/ml, 16 and 24 h
Method: (§1) Accumulation of p53 protein, and the p53-regulated cdk inhibitor p21WAF1/CIP1, were assayed by immunoblotting in a parallel time course after inhibition of FAS (FIG. 4). Cells were treated with cerulenin (10 μg/ml) (A) or C-75 (10 μg/ml) (B) for the stated exposure times, and analyzed by immunoblotting for p53 and p21 protein content, with actin as an internal control. One million cells per 60-mm plate were treated with 10 μg/ml cerulenin or C-75 in duplicate for the indicated time intervals; control cells received equivalent amounts of DMSO. After drug treatment, cells were lysed with 200 μl Laemmli sample buffer and boiled. Ten μl of each lysate per lane was separated by SDS-PAGE, transferred to nitrocellulose, and exposed to antibodies against p53 (Pab1801, Oncogene Research Products), p21 (6B6, PharMingen) or actin (I-19, Santa Cruz), followed by horseradish peroxidase-conjugated goat anti-mouse or rabbit anti-goat antibody (Pierce), enhanced chemiluminescence (Amersham) and autoradiography.

[5] = test system: p21WAF1/CIP1; assay: Immunoblot of p21 protein in RKO cells; type: cell-based, human; details: 10 μg/ml, 16 and 24 h
Method: as §1

[6] = test system: MCF7 breast cancer cells; assay: Alkaline single cell gel electrophoresis (comet assay), MCF7; type: cell-based, human; details: 3 h, doses bracketing 75% survival at 24 h
From the text: This assay detects DNA strand breaks, and a spectrum of alkali-labile DNA damage at low levels (Singh, N. P., McCoy, M. T., Tice, R. R., and Schneider, E. L., “A simple Technique for Quantitation of Low Levels of DNA Damage in Individual Cells,” Experimental Cell Research, 175:184-191, (1988); Plappert, U., Raddatz, K., Roth, S., and Fliedner, T. M., “DNA-Damage Detection in Man After Radiation Exposure—the Comet Assay—Its Possible Application for Human Biomonitoring,” Stem Cells, 13 Supplement 1:215-222, (1995)).
Cerulenin- or C-75-treated MCF7 breast carcinoma cells were subjected to alkaline single cell gel electrophoresis (comet assay). MCF7 breast cancer cells were treated with cerulenin or C-75 for 3 h at doses bracketing 75% survival at 24 h. All experiments were repeated three times and duplicate slides from each experiment were prepared and scored. […] Neutralized, dehydrated slides were stained with ethidium bromide (2 ng/ml) and comets scored under a Nikon fluorescence microscope (with TRITC filters) coupled to a KOMET 4.0 software (Kinetic Imaging Ltd).
Olive tail moment indicates electrophoretic mobility of DNA induced by DNA damage. […] One hundred consecutive cells were scored from the middle of each slide, and the means calculated. The final results were expressed as the (mean of the individual means)±(standard deviation of the means). […]

[7] = test system: fatty acid synthesis; details: cited from earlier work
[8] = test system: RKO-p53 cells; assay: Apoptosis by merocyanine 540 multiparameter flow cytometry; type: cell-based, human
From the text: The effect of p53 function on survival after FAS inhibition was investigated by comparing two pairs of isogenic cell lines with wild-type and altered p53 function. RKO cells were rendered p53-mutant by stable transfection with a dominant-negative mutant p53 gene (RKO-p53); the human breast carcinoma cell line MCF7 was rendered p53-deficient by constitutive expression of the human papilloma virus 16 E6 gene (MCF7-E6) (Fan, S., Smith, M. L., Rivet, D. J., 2nd, Duba, D., Zhan, Q., Kohn, K. W., Fornace, A. J., Jr., and PM, O. C., “Disruption of p53 Function Sensitizes Breast Cancer MCF-7 Cells to Cisplatin and Pentoxifylline,” Cancer Research, 55:1649-1654, (1995)).
Cells were exposed to cerulenin or C-75 for the indicated doses and time intervals, then detached from plastic with trypsin for flow cytometry analysis. Apoptosis was measured by multiparameter flow cytometry using a FACStar^Plus flow cytometer equipped with argon and krypton lasers (Becton Dickinson). […] Merocyanine 540-positive cells were identified using 488-nm excitation from an argon laser and a 575-nm DF26 bandpass filter for collection of events with increased red fluorescence. Data were collected and analyzed using CellQuest software (Becton Dickinson). […]

Compound | cell cycle distribution (DNA content), early time points [1] | cell cycle progression of BrdU pulse-labeled cells [2] | kinase activity associated with immunoprecipitated cyclin A complexes, later time points [3] | p53 protein level [4] | p21 protein level [5] | DNA damage, olive tail moment [6] | inhibitory effects on fatty acid synthesis [7] | effect of pretreatment on FAS inhibitor mediated apoptosis ([8]; RKO-p53 cells, TOFA pretreatment) | cell cycle distribution (DNA content), late time points ([1]; 16 and 24 h) | apoptosis (MC540) in p53-deficient cells compared to parent line ([8]; RKO-p53 vs parent RKO, 24 h exposure, 5 or 10 μg/ml)
C=C1C(=O)OC(CCCCCCCC)C1C(=O)O (stereo not shown) [C-75] | This effect was characteristic of both cerulenin and C-75 treatment | exhibited a similar response | increased moderately | induced accumulation | induced accumulation | Neither cerulenin nor C-75 induced olive tail moments over background values | comparable to those seen with cerulenin | – | – | –
CCCCCCCCCCCCCCOc1ccc(C(=O)O)o1 [TOFA, 5-(tetradecyloxy)-2-furoic acid] | – | – | – | – | – | – | – | did rescue FAS inhibitor mediated apoptosis | – | –
C/C=C/C/C=C/CCC(=O)[C@H]1O[C@H]1C(N)=O [cerulenin, (2R, 3S)-2,3-epoxy-4-oxo-7,10-trans,trans-dodecadienamide] | redistribution of cells into S phase and G2/M | substantial delays in cell cycle progression | increased moderately | induced accumulation | induced accumulation | Neither cerulenin nor C-75 induced olive tail moments over background values | – | – | S-phase fraction decreased substantially, with a redistribution of cells into G1 and G2/M | large, dose-dependent increase in apoptosis

From patent publication US20020173447A1, “Cytostatic effects of fatty acid synthase inhibition” (priority 2001, published 2002)
